From ChEMBL document CHEMBL5465560, “Selectivity Literature for EUbOPEN Chemogenomic Library” (2024)

Tests used:
[1] = molecular target: Ribosomal protein S6 kinase alpha-6 (Homo sapiens, UniProt Q9UK32); test: Selectivity interaction (KinomeScan (DiscoverX)) EUB0000092b RPS6KA6; conditions: at 10 µM
[2] = molecular target: Platelet-derived growth factor receptor alpha (Homo sapiens, UniProt P16234); test: Selectivity interaction (KinomeScan (DiscoverX)) EUB0000655a PDGFRA; conditions: at 10 µM
Platelet-derived growth factor receptor alpha, sequence (P16234 whole entry): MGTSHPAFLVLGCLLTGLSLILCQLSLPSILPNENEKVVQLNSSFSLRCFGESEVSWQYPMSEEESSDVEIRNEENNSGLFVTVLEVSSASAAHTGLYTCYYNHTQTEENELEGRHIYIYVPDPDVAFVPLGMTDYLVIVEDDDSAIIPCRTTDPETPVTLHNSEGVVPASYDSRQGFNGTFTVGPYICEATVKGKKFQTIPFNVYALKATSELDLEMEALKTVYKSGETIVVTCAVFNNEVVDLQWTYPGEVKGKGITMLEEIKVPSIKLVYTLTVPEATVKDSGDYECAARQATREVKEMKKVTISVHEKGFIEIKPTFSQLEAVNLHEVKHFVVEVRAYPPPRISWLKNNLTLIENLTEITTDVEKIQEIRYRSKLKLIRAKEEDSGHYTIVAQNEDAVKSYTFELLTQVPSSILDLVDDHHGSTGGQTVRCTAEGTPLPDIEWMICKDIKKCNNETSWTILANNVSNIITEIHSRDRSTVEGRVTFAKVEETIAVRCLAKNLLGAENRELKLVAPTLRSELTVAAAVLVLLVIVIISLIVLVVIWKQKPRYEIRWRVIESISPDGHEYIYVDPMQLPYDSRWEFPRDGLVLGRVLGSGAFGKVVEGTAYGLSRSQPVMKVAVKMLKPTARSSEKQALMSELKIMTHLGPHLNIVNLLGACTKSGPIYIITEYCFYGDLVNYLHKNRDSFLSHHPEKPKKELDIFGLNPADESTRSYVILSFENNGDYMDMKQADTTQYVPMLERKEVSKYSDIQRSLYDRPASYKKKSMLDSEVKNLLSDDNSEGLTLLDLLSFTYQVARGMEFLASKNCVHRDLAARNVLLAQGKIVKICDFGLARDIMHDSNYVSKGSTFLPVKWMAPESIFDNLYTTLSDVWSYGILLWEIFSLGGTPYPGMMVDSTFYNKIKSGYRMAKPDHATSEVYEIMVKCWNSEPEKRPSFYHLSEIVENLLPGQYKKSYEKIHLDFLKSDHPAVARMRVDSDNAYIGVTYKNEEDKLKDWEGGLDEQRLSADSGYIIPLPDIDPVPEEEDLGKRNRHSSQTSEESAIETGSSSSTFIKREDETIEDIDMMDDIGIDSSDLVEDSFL

[3] = molecular target: T1, Atypical kinase COQ8A, mitochondrial (Homo sapiens, UniProt Q8NI60); test: Selectivity interaction (KinomeScan (DiscoverX)) EUB0000666a ADCK3; conditions: at 10 µM
T1 sequence (Q8NI60 163-647 limits assumed): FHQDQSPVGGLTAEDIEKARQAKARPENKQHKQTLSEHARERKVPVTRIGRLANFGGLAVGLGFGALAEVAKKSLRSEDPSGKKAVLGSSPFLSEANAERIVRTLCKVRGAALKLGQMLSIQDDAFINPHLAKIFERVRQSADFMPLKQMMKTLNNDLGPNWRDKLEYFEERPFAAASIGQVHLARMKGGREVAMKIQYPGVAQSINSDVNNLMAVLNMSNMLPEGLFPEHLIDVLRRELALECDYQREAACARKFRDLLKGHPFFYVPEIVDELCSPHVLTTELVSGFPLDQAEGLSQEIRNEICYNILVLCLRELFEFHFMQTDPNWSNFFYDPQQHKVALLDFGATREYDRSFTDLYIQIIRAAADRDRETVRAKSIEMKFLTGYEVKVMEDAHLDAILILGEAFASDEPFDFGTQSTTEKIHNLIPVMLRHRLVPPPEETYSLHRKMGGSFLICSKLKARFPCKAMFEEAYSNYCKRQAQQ

[4] = molecular target: T2, Serine/threonine-protein kinase RIO1 (Homo sapiens) (UniProt Q9BRS2); conditions: at 10 µM
T2 sequence (whole entry): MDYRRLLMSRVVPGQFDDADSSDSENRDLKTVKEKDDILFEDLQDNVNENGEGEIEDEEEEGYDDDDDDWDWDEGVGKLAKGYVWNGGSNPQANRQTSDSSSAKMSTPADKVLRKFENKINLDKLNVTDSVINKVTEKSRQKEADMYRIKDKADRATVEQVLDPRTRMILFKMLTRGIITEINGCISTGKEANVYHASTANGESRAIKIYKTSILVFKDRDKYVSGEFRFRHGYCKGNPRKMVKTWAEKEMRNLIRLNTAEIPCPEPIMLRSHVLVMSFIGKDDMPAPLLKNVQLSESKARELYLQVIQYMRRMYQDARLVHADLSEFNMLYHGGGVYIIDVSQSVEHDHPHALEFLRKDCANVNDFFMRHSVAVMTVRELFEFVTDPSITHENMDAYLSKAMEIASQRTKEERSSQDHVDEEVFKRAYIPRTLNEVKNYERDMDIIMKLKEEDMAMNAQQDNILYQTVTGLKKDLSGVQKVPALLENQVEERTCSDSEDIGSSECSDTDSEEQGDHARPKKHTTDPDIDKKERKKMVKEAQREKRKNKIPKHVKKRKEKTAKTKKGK

[5] = molecular target: T1, Atypical kinase COQ8A, mitochondrial; test: Selectivity interaction (LanthaScreen Eu Kinase Binding Assay) EUB0001632a ADCK3; conditions: at 10 µM
[6] = molecular target: T3, Ephrin type-A receptor 1 (Homo sapiens) (UniProt P21709); test: Selectivity interaction (Kinase panel (Z-LYTE Assay)) EUB0001632a EPHA1; conditions: at 10 µM
T3 sequence (whole entry): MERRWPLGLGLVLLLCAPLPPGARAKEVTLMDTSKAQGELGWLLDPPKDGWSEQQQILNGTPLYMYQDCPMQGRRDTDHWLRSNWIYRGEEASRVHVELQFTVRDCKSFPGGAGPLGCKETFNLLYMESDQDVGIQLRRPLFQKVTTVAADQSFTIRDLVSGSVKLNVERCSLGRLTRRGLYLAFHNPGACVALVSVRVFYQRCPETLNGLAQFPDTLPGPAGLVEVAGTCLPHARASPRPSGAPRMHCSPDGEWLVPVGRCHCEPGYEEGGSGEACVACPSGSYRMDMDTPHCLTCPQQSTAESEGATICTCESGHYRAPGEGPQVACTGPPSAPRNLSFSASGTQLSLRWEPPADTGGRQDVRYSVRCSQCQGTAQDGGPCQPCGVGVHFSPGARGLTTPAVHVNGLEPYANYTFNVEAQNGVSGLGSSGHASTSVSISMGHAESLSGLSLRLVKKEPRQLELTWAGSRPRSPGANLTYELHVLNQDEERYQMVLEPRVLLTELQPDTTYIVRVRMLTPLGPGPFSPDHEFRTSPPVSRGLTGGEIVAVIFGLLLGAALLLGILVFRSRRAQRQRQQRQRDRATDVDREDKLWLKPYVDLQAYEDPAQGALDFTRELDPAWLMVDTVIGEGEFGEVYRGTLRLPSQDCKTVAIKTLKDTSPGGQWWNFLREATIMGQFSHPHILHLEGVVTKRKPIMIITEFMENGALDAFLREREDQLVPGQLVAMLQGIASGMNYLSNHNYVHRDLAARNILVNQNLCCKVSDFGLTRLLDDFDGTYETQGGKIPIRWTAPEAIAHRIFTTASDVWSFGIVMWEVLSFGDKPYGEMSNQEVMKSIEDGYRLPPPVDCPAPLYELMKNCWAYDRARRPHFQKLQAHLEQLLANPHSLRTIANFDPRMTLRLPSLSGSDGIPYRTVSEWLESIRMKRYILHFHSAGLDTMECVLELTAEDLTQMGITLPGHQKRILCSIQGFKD

[7] = molecular target: G protein-coupled receptor kinase 6 (Homo sapiens) (UniProt P43250); test: Selectivity interaction (Kinase panel (Z-LYTE Assay)) EUB0001632a GRK6; conditions: at 10 µM
G protein-coupled receptor kinase 6 (Homo sapiens), sequence (P43250 whole entry, looked up): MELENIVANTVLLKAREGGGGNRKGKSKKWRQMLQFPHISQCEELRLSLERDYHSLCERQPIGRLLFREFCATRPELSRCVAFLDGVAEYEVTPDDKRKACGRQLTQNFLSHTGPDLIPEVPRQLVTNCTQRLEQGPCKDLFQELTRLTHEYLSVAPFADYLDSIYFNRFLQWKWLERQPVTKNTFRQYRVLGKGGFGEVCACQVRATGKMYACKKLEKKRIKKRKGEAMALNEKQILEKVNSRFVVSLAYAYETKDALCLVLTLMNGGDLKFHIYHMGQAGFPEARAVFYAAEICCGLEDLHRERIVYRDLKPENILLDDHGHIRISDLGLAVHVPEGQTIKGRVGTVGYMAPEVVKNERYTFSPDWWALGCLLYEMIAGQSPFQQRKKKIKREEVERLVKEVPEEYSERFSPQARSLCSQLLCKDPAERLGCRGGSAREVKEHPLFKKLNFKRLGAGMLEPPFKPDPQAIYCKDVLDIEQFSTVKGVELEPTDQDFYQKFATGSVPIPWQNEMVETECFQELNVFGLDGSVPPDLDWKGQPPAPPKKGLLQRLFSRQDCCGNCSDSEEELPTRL

[8] = molecular target: Cyclin-dependent kinase 8 (Homo sapiens, UniProt P49336); test: Selectivity interaction (Kinase panel (Invitrogen)) EUB0000639a CDK8; conditions: at 200 nM
[9] = molecular target: T4, Serine/threonine-protein kinase Nek11 (Homo sapiens) (UniProt Q8NG66); test: Selectivity interaction (KinomeScan (DiscoverX)) EUB0001049a NEK11; conditions: at 1 µM
T4 sequence (whole entry): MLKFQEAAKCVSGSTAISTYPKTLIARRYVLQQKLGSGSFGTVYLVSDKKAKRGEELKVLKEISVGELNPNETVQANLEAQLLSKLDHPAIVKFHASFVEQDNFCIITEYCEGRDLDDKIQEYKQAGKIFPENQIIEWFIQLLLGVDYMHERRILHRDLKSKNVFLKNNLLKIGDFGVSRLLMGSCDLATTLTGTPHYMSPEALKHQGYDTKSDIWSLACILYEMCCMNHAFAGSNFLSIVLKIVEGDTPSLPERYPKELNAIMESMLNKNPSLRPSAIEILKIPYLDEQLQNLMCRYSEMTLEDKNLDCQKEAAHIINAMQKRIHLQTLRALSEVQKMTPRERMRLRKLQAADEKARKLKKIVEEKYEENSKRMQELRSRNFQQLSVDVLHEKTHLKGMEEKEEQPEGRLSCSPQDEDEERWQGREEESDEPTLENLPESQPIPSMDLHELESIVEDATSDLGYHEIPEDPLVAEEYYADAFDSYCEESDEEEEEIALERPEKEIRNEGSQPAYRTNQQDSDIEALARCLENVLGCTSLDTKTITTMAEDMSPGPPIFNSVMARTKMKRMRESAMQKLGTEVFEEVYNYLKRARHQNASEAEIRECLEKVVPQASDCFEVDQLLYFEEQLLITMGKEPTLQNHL

[10] = molecular target: Serine/threonine-protein kinase MARK1 (Homo sapiens) (UniProt Q9P0L2); conditions: at 10 µM
Serine/threonine-protein kinase MARK1 (Homo sapiens), sequence (Q9P0L2 whole entry, looked up): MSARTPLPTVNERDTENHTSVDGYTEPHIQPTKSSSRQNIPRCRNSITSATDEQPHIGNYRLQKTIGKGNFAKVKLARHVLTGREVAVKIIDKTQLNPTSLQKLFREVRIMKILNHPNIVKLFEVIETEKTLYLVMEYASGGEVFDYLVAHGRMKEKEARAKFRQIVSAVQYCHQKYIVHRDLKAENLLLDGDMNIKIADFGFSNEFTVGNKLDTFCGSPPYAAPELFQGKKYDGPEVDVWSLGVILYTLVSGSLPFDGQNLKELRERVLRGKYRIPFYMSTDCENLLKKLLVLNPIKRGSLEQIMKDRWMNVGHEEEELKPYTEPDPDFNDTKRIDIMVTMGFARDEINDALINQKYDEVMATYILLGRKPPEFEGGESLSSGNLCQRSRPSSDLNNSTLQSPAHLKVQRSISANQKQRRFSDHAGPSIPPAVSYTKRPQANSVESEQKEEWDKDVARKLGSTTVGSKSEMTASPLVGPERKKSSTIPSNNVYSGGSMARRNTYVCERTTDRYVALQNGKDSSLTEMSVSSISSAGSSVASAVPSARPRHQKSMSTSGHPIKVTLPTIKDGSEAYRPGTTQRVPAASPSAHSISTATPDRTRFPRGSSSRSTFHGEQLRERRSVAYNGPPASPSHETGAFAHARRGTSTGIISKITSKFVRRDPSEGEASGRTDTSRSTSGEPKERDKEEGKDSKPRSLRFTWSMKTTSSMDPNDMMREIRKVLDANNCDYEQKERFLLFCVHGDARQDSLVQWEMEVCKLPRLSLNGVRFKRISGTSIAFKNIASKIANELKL

[11] = molecular target: Serine/threonine-protein kinase N2 (Homo sapiens, UniProt Q16513); test: Selectivity interaction (KinomeScan (DiscoverX)) EUB0000618a PKN2; conditions: at 10 µM
Serine/threonine-protein kinase N2, sequence (Q16513 whole entry, looked up): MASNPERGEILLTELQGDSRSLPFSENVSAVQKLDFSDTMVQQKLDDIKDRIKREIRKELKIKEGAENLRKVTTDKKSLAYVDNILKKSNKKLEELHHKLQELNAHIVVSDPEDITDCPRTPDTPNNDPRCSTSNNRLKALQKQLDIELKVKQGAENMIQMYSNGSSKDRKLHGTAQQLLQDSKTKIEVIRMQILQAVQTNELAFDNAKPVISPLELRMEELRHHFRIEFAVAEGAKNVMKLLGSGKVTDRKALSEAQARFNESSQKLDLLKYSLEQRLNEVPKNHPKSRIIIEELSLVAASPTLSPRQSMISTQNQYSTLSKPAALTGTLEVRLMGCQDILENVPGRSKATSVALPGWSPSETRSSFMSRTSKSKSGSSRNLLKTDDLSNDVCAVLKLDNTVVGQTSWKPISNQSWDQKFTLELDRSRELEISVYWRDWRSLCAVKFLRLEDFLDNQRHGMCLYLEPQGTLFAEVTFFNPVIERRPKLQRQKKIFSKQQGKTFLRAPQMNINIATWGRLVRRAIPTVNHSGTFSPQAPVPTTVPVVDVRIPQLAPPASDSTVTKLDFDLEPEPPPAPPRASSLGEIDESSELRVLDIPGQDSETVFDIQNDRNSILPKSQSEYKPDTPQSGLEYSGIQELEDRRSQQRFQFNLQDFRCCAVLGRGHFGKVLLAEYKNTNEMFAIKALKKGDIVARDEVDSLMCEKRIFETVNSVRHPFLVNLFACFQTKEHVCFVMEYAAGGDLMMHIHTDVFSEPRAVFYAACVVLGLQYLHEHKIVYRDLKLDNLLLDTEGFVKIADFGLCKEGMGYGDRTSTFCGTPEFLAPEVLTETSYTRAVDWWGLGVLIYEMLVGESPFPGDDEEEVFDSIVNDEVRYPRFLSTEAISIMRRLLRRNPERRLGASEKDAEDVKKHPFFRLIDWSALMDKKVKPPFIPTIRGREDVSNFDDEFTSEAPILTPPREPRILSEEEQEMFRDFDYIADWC

[12] = molecular target: Insulin receptor-related protein (Homo sapiens) (UniProt P14616); test: Selectivity interaction (Kinase screening (Nanosyn)) EUB0000604a INSRR

Ribosomal protein S6 kinase alpha-6, sequence (Q9UK32 whole entry): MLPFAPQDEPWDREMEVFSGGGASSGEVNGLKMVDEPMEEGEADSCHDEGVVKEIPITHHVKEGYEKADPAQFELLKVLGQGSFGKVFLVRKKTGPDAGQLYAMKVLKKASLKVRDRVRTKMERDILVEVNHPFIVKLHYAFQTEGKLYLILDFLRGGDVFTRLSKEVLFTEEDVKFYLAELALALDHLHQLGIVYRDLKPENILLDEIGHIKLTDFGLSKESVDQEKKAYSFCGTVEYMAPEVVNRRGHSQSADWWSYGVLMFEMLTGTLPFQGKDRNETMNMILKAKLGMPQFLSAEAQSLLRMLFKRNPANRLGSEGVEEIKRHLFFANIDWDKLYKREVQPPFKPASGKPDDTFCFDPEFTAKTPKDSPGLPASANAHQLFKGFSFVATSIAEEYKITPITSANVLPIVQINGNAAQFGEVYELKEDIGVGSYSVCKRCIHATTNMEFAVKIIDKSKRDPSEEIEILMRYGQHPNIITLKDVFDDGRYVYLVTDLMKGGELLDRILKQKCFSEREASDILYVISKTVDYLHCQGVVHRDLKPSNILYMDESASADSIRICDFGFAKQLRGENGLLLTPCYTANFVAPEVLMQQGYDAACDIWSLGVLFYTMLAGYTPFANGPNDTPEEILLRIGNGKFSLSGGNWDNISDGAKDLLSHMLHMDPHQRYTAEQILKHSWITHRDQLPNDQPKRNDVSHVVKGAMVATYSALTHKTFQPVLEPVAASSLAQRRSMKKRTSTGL

SMILES: CCC(=O)N1CCN(c2ccc(-n3c(=O)ccc4cnc5ccc(-c6cnc7ccccc7c6)cc5c43)cc2C(F)(F)F)CC1
- % of control [1]: 86%

SMILES: CN(C)CCOc1ccc(-c2nc(-c3ccncc3)c(-c3ccc4c(c3)CC/C4=N\O)[nH]2)cc1
- % of control [2]: 100%

SMILES: O=C(NOC[C@H](O)CO)c1ccc(F)c(F)c1Nc1ccc(I)cc1F
- % of control [3]: 86%

SMILES: Cc1cc([C@@H](C)Nc2ccccc2C(=O)O)c2nc(N3CCOCC3)cc(=O)n2c1 [AZD-6482]
- % of control [4]: 100%

SMILES: Cn1cc(-n2cnc3c(NCc4nc5cc(Cl)c(Cl)cc5[nH]4)nc(N4CCOCC4)nc32)cn1
- % of inhibition [5]: 8.48%
- % of control [6]: 2.3%
- % of control [7]: -1.29%

SMILES: CC[C@@H]1[C@H](F)C(=O)N[C@@H]1COc1nccc2cc(C(N)=O)c(OC)cc12 [ZIMLOVISERTIB]
- % of inhibition [8]: 40.1%

SMILES: COc1cc(Nc2nc(C)cc(-c3cnn4nc(OC)ccc34)n2)cc(C(F)(F)F)c1
- % of control [9]: 99%

SMILES: COCC(=O)NC/C=C/c1ccc2ncnc(Nc3ccc(Oc4ccc(C)nc4)c(C)c3)c2c1 [CP-724714]
- % of control [10]: 100%

SMILES: O[C@H]1CC[C@H](Nc2ncc3nc(Nc4c(F)cc(F)cc4F)n([C@H]4CCOC4)c3n2)CC1
- % of control [11]: 97%

SMILES: Cc1cnc(Nc2ccc(F)cc2Cl)nc1-c1c[nH]c(C(=O)N[C@H](CO)c2cccc(Cl)c2)c1
- % of inhibition [12]: 0%
